“Also recorded” adds a separate entry of the source.
How the values were obtained:
[1] = tested on: delayed type hypersensitivity (DTH) response to DNFB; assay: Delayed-type hypersensitivity (DTH) ear swelling, DNFB-primed mice (Experiments 2-3); assay type: in vivo, C57BL/6J mice
Protocol: Delayed type hypersensitivity, which involves the participation of T lymphocytes and macrophages, can be studied in vivo by exposing (or priming) a mammal to a novel antigen and then reexposing (or challenging) the primed animal to the same antigen four to seven days later. The classic DTH response includes symptoms of inflammatory response, induration and erythema, which peak at 24 to 48 hours after challenging and then decline slowly.
Eight-week old female C57BL/6J mice (Jackson Labs) were divided into primed and unprimed groups. The five mice in the primed group were primed to 2,4-dinitrofluorobenzene (DNFB; Sigma Chemical Co., Grade 1, approx. 98%, Lot 129C-0065, No. d-6879) by painting their shaved ventral skins with 0.1 ml of 0.5% DNFB in ethanol:acetone (3:1). The five mice in the unprimed group were shaved and topically painted on their ventral skins with the ethanol:acetone (3:1) vehicle alone. The mice in both groups were challenged with DNFB four days later. A suitable patch of skin, the ear, was chosen for challenging. One ear was designated for challenging and the other to serve as a control. The thickness of each ear across the pinna was measured using micrometer calipers. The first measurements were taken four days after priming and are plotted as day 0 in FIG. 13. Next, each mouse was subjected to the following challenge regimen: one ear was challenged with one drop of 0.35% DNFB in olive oil, and the other (unchallenged control) ear was exposed to olive oil alone. The ear thicknesses (ET) of the challenged ear and the unchallenged ear were measured daily, and the swelling responses are plotted in FIG. 13 as: [formula]
Three groups of eight-week old female C57BL/6J mice were primed to DNFB as previously described. […] Six hours later the first sets of ear measurements were taken, and one ear of each mouse was challenged.
The data in FIG. 15 is derived from three experiments using C57BL/6J mice. The measurements were taken at the time of maximal swelling, i.e., […] after challenge, and each point represents at least 9 mice.

[2] = tested on: thymocytes from normal mice; assay: Con A stimulated 3H-thymidine incorporation, thymocytes from normal mice in vitro (Experiment 18); assay type: cell-based; details: concentrations as high as 10^-5 M/L
Normal mouse thymocytes = assay: 3H-thymidine incorporation, PHA plus IL-1 stimulated thymocytes (Experiment 12); assay type: cell-based; details: concentrations as high as 10^-6 M/L; PHA in the presence of preformed IL-1
[3] = tested on: Human polymorphonuclear leukocytes (PMNs); assay: LTB4 release by polymorphonuclear leukocytes (Experiment 10); assay type: cell-based; details: normal human PMNs
Excerpt: Human polymorphonuclear leukocytes (PMNs) were used to study LTB4 release, which is known to be involved in inflammation.

[4] = tested on: primary response to sheep red blood cells (SRBC); assay: Direct plaque forming cell (PFC) assay, primary response to sheep red blood cells (Experiment 6); assay type: in vivo, C57BL/6J mice
Protocol: A control group received only the buffer vehicle (carbonate buffer, 0.01M, pH 9.5). Six hours after the first dose, the mice received 0.1 ml of a 20% SRBC solution intraperitoneally. The mice were sacrificed four days later. The spleens were harvested, and the spleen cells were tested in a modified Cunningham plaque assay. Cunningham, A. V., Nature (London) 207:1106 1965.

[5] = tested on: ear swelling produced by topical application of arachidonic acid; assay: Ear swelling produced by topical arachidonic acid (Experiment 22); assay type: in vivo, mice
[6] = tested on: ear swelling in response to PMA; assay: Ear swelling in response to PMA (Experiment 21); details: in vivo
[7] = 11 mg/kg orally daily, four days after SRBC

## O=C1NC(=O)[C@@]2(CCOc3ccc(F)cc32)N1 [Sorbinil, 4(S)-2,3-dihydro-6-fluorospiro-(4H-1-benzopyran-4,4'-imidazolidine)-2',5'-dione]
[1]; Mus musculus, extrapolation from least squares fit line, FIG. 15, three experiments, time of maximal swelling, i.e., 2 hours after challenge, read-out: Concentration at which maximum inhibition of DTH response (no swelling) would occur
  ED100: 13.5 mg/kg
[1]; sorbinil 10 mg/kg orally
  Ear swelling (in words): almost complete inhibition of ear swelling
[1]; sorbinil orally 10, 1.0 or 0.1 mg/kg daily, DNFB-primed and challenged C57BL/6J mice
  Ear swelling / DTH response (in words): Swelling was inhibited; also recorded: dose dependent inhibition of ear swelling; also recorded: inhibits the inflammatory response; also recorded: dose dependent inhibition of the delayed-type hypersensitivity response
[2]
  3H-thymidine incorporation stimulated by Con A: no effect
Normal mouse thymocytes
  Incorporation of 3H-thymidine: no effect
[3]
  Production of LTB4: no effect
[4]; [7]
  Direct plaques: 372±62 plaques per 2×10^5 cells
  Increase in spleen cellularity compared to buffer-treated control group: 46%
  Increase in the number of direct plaques (IgM antibody secreting cells) compared to buffer control: 94%
  PFC on a per spleen basis: 393,000±12,617 PFC/spleen
  Spleen cellularity: 2.12±0.26×10^8 cells/spleen
[4]; spleen cells from sorbinil-treated mice vs buffer control
  Qualitative appearance of plaques: much smaller, more irregularly shaped, and less distinct
[5]; oral administration
  Ear swelling produced by topical arachidonic acid: no effect
[5]; topical administration
  Ear swelling produced by topical arachidonic acid: no effect
[6]
  Swelling of mouse ears in response to PMA: no effect
